Measured values taken from PubChem BioAssay AID1963844 (Molecular Pharmacology Branch, DTP, NCI, 2024).

Test system: 422866-222-R5-J1-PDC complex spheroid viability
Experiment: Anticancer human tumor 422866-222-R5-J1-PDC patient-derived pancreatic adenocarcinoma cell line growth inhibition [POLQ]
Conditions: for IC50: curve of first compound; for viability, T/C: stronger effect = lower value
Procedure, shortened: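 Complex spheroid viability model combining PDC tumour cells with endothelial (HUVEC) and MSC stromal cells. Novobiocin, ART-558 or RP6685 were tested singly and in combination with standard and investigational anticancer drugs. Each was titrated in half-log steps from near clinical Cmax, or from 10 microM where Cmax was unknown.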

[1] = second compound 0.0316 µM, first compound 0.0316 µM
[2] = second compound 0.0316 µM, first compound 0.1 µM
[3] = second compound 0.0316 µM, first compound 0.316 µM
[4] = second compound 0.0316 µM, first compound 1 µM
[5] = second compound 0.1 µM, first compound 0.0316 µM
[6] = second compound 0.1 µM, first compound 0.1 µM
[7] = second compound 0.1 µM, first compound 0.316 µM
[8] = second compound 0.1 µM, first compound 1 µM
[9] = second compound 0.316 µM, first compound 0.0316 µM
[10] = second compound 0.316 µM, first compound 0.1 µM
[11] = second compound 0.316 µM, first compound 0.316 µM
[12] = second compound 0.316 µM, first compound 1 µM
[13] = second compound 1 µM, first compound 0.0316 µM
[14] = second compound 1 µM, first compound 0.1 µM
[15] = second compound 1 µM, first compound 0.316 µM
[16] = second compound 1 µM, first compound 1 µM
[17] = second compound 3.16 µM, first compound 0.0316 µM
[18] = second compound 3.16 µM, first compound 0.1 µM
[19] = second compound 3.16 µM, first compound 0.316 µM
[20] = second compound 3.16 µM, first compound 1 µM
[21] = second compound 10 µM, first compound 0.0316 µM
[22] = second compound 10 µM, first compound 0.1 µM
[23] = second compound 10 µM, first compound 0.316 µM
[24] = second compound 10 µM, first compound 1 µM
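Also: spheroids exposed to compounds for one week before readout.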
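For viability, T/C in this document: percent of DMSO vehicle wells luminescence so 100% = untreated viability.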

**Q.** How did the IC50 (second compound 0.0316 µM) turn out when C=CCn1c(=O)c2cnc(Nc3ccc(N4CCN(C)CC4)cc3)nc2n1-c1cccc(C(C)(C)O)n1 + Nc1ccc(C#CCN(C(=O)Cc2ncc(C(F)(F)F)cc2C(F)(F)F)c2ccc(F)cc2)nn1 was run?
**A.** 290 nM

**Q.** What about the IC50 (second compound 0.1 µM) of the same compound?
**A.** 270 nM

**Q.** And the IC50 (second compound 0.316 µM)?
**A.** 252 nM

**Q.** What about the IC50 (second compound 1 µM) of the same compound?
**A.** 311 nM

**Q.** And the IC50 (second compound 3.16 µM)?
**A.** 251 nM

**Q.** And the IC50 (second compound 10 µM)?
**A.** 257 nM

**Q.** And the viability, T/C (second compound 0.0316 µM, first compound 0.00316 µM)?
**A.** 88%

**Q.** And the viability, T/C (second compound 0.0316 µM, first compound 0.01 µM)?
**A.** 96.6%

**Q.** And the viability, T/C [1]?
**A.** 92.1%

**Q.** What about the viability, T/C [2] of the same compound?
**A.** 79.7%

**Q.** What about the viability, T/C [3] of the same compound?
**A.** 47.8%

**Q.** What about the viability, T/C [4] of the same compound?
**A.** 33.7%

**Q.** And the viability, T/C (second compound 0.1 µM, first compound 0.00316 µM)?
**A.** 98%

**Q.** What about the viability, T/C (second compound 0.1 µM, first compound 0.01 µM) of the same compound?
**A.** 102%

**Q.** What about the viability, T/C [5] of the same compound?
**A.** 98.2%

**Q.** And the viability, T/C [6]?
**A.** 80.8%

**Q.** What about the viability, T/C [7] of the same compound?
**A.** 45.2%

**Q.** What about the viability, T/C [8] of the same compound?
**A.** 32.8%

**Q.** What about the viability, T/C (second compound 0.316 µM, first compound 0.00316 µM) of the same compound?
**A.** 97%

**Q.** What about the viability, T/C (second compound 0.316 µM, first compound 0.01 µM) of the same compound?
**A.** 89.7%

**Q.** What about the viability, T/C [9] of the same compound?
**A.** 99.7%

**Q.** What about the viability, T/C [10] of the same compound?
**A.** 71.9%

**Q.** And the viability, T/C [11]?
**A.** 46.5%

**Q.** What about the viability, T/C [12] of the same compound?
**A.** 34.6%

**Q.** What about the viability, T/C (second compound 1 µM, first compound 0.00316 µM) of the same compound?
**A.** 97.6%

**Q.** What about the viability, T/C (second compound 1 µM, first compound 0.01 µM) of the same compound?
**A.** 91.4%

**Q.** What about the viability, T/C [13] of the same compound?
**A.** 115%

**Q.** And the viability, T/C [14]?
**A.** 76.2%

**Q.** What about the viability, T/C [15] of the same compound?
**A.** 53.5%

**Q.** What about the viability, T/C [16] of the same compound?
**A.** 34.3%

**Q.** And the viability, T/C (second compound 3.16 µM, first compound 0.00316 µM)?
**A.** 78.1%

**Q.** What about the viability, T/C (second compound 3.16 µM, first compound 0.01 µM) of the same compound?
**A.** 97.1%

**Q.** And the viability, T/C [17]?
**A.** 128%

**Q.** What about the viability, T/C [18] of the same compound?
**A.** 69.5%

**Q.** What about the viability, T/C [19] of the same compound?
**A.** 53.6%

**Q.** And the viability, T/C [20]?
**A.** 36.6%

**Q.** And the viability, T/C (second compound 10 µM, first compound 0.00316 µM)?
**A.** 106%

**Q.** What about the viability, T/C (second compound 10 µM, first compound 0.01 µM) of the same compound?
**A.** 104%

**Q.** What about the viability, T/C [21] of the same compound?
**A.** 103%

**Q.** What about the viability, T/C [22] of the same compound?
**A.** 78.7%

**Q.** And the viability, T/C [23]?
**A.** 44%

**Q.** And the viability, T/C [24]?
**A.** 35.7%

**Q.** With CCc1cc2c(N3CCc4c(cc(Cn5ccnc5)cc4-c4cn(C)nc4C(F)(F)F)C3=O)cc(C)nc2c(OC)n1 + Cc1cccc(N(C)C(=O)C2C(O)CCN2c2nc(C)cc(C(F)(F)F)c2C#N)c1 as the compound, how does the IC50 (second compound 0.0316 µM) read?
**A.** > 10000 nM

**Q.** And the IC50 (second compound 0.1 µM)?
**A.** > 10000 nM

**Q.** What about the IC50 (second compound 0.316 µM) of the same compound?
**A.** > 10000 nM

**Q.** What about the IC50 (second compound 1 µM) of the same compound?
**A.** > 10000 nM

**Q.** What about the IC50 (second compound 3.16 µM) of the same compound?
**A.** > 10000 nM

**Q.** What about the IC50 (second compound 10 µM) of the same compound?
**A.** > 10000 nM

**Q.** What about the viability, T/C [1] of the same compound?
**A.** 78.4%

**Q.** And the viability, T/C [2]?
**A.** 73.7%

**Q.** And the viability, T/C [3]?
**A.** 93.1%

**Q.** And the viability, T/C [4]?
**A.** 99.6%

**Q.** And the viability, T/C (second compound 0.0316 µM, first compound 3.16 µM)?
**A.** 104%

**Q.** What about the viability, T/C (second compound 0.0316 µM, first compound 10 µM) of the same compound?
**A.** 98%

**Q.** And the viability, T/C [5]?
**A.** 84.6%

**Q.** What about the viability, T/C [6] of the same compound?
**A.** 83.5%

**Q.** And the viability, T/C [7]?
**A.** 92.2%

**Q.** And the viability, T/C [8]?
**A.** 88.7%

**Q.** And the viability, T/C (second compound 0.1 µM, first compound 3.16 µM)?
**A.** 101%

**Q.** What about the viability, T/C (second compound 0.1 µM, first compound 10 µM) of the same compound?
**A.** 119%

**Q.** What about the viability, T/C [9] of the same compound?
**A.** 91.8%

**Q.** And the viability, T/C [10]?
**A.** 88.7%

**Q.** What about the viability, T/C [11] of the same compound?
**A.** 81.2%

**Q.** And the viability, T/C [12]?
**A.** 94.9%

**Q.** What about the viability, T/C (second compound 0.316 µM, first compound 3.16 µM) of the same compound?
**A.** 104%

**Q.** What about the viability, T/C (second compound 0.316 µM, first compound 10 µM) of the same compound?
**A.** 94.4%

**Q.** What about the viability, T/C [13] of the same compound?
**A.** 84.5%

**Q.** What about the viability, T/C [14] of the same compound?
**A.** 82.7%

**Q.** And the viability, T/C [15]?
**A.** 86.6%

**Q.** What about the viability, T/C [16] of the same compound?
**A.** 82.8%

**Q.** And the viability, T/C (second compound 1 µM, first compound 3.16 µM)?
**A.** 93.8%

**Q.** And the viability, T/C (second compound 1 µM, first compound 10 µM)?
**A.** 93.5%

**Q.** What about the viability, T/C [17] of the same compound?
**A.** 86.3%

**Q.** And the viability, T/C [18]?
**A.** 85.8%

**Q.** What about the viability, T/C [19] of the same compound?
**A.** 92.4%

**Q.** What about the viability, T/C [20] of the same compound?
**A.** 91.6%

**Q.** What about the viability, T/C (second compound 3.16 µM, first compound 3.16 µM) of the same compound?
**A.** 99.8%

**Q.** And the viability, T/C (second compound 3.16 µM, first compound 10 µM)?
**A.** 90.6%

**Q.** And the viability, T/C [21]?
**A.** 88.9%

**Q.** What about the viability, T/C [22] of the same compound?
**A.** 88.5%

**Q.** What about the viability, T/C [23] of the same compound?
**A.** 93.9%

**Q.** What about the viability, T/C [24] of the same compound?
**A.** 78.2%

**Q.** And the viability, T/C (second compound 10 µM, first compound 3.16 µM)?
**A.** 95.8%

**Q.** What about the viability, T/C (second compound 10 µM, first compound 10 µM) of the same compound?
**A.** 94.8%
